The record followed here is patent US7572454B2, “T helper cell epitopes” (priority 1999, dated 2009).

This assay deals with PBMCs from dogs immunised with CDV. The experiment in a line: T-cell proliferation after in vitro stimulation of PBMC with peptide pools, tested with autologous APCs and single peptides. The assay is classed as cell-based, dog. The procedure: An alternate strategy was used to increase the precursor frequency of specific T cells recognising the CDV peptides. Fresh PBMCs obtained from these hyperimmunised dogs were subjected to stimulation in vitro with pools of all 94 peptides for 30 minutes at 37° C. The cells were then washed to remove any excess peptides and cultured for 7 days. This population of T cells was then tested with autologous APCs with every single peptide as the antigen.
To confirm this observation, the same four dogs were bled again, five weeks after receiving the dose of killed virus. The PBMCs were stimulated in vitro with pools of either all 94 peptides or peptides 21-40 (because most of the activity was in this region) and after 7 days of culture the stimulated T cells were tested against individual peptides. Significant stimulatory indices were obtained with all peptides, confirming the above results. Four more dogs which received only one dose of 3 in 1 vaccine were tested using the in vitro stimulation method and all four dogs responded to the majority of peptides shown in Table 2.
Once again the same peptides and one additional peptide P32 were tested on cells from additional dogs.

The mark [1] stands for this setting: Table 1, Beagle Foxhound (Dog #18), hyperimmunised, PBMC stimulated with pool of all 94 peptides, 7 days culture.
Where [2] appears, read: Table 1, Beagle Foxhound (Dog #19).
Where [3] appears, read: Table 1, Beagle Foxhound (Dog #20).
Setting [4] is: Table 1, Beagle Foxhound (Dog #21).
[5] abbreviates: Table 3, Kelpie Foxhound (Dog #125).
[6] abbreviates: Table 2, Beagle Foxhound (Dog #71), one dose of 3 in 1 vaccine.
Setting [7] is: Table 2, Beagle Foxhound (Dog #72), one dose of 3 in 1 vaccine.

As for “CIRGDTSSCARTLVSGT (canine distemper virus; synthetic peptide from canine distemper virus fusion protein (CDV-F) designated peptide P68)”, the Stimulatory index is, setting by setting: under setting [1], 6.6; under setting [2], below 2; under setting [3], below 2; under setting [4], 11.7; under setting [5], 2.9; (Table 5, Border Collie) below 2. Besides, the Stimulatory index reads like this: (Table 5, Fox Terrier) below 2; (Table 5, Grey hound) below 2; (Table 5, Kelpie Pointer) below 2; (Table 5, Poodle Shitzu) 5; (Table 5, Terrier Cross) below 2.

Take “DESSCVFVSESAICSQN (canine distemper virus; synthetic peptide from canine distemper virus fusion protein (CDV-F) designated peptide P64)”: the Stimulatory index by setting is: (Table 4, Beagle Foxhound #19) 2.5; (Table 4, Beagle Foxhound #20) 2.5; (Table 4, Poodle Shitzu) 50.0; (Table 5, Border Collie) below 2; (Table 5, Fox Terrier) below 2; (Table 5, Grey hound) below 2. In addition, the Stimulatory index (Table 5, Kelpie Pointer) is listed as below 2; the Stimulatory index (Table 5, Poodle Shitzu) came to 50; the Stimulatory index (Table 5, Terrier Cross) was below 2. Further, the “reaction with peripheral blood mononuclear cells” value (dogs of various breeds immunised with CDV) is “react strongly”.

“EPINQALTLMTKNVKPL (canine distemper virus; synthetic peptide from canine distemper virus fusion protein (CDV-F) designated peptide P29)”: the Stimulatory index is listed as 3.5 under setting [1]; 42 under setting [2]; 4.4 under setting [3]; below 2 under setting [4]; 2 under setting [6]; 6 (Table 2, Beagle Foxhound (Dog #73), one dose of 3 in 1 vaccine). Besides, the Stimulatory index was 3.6 under setting [5]; below 2 (Table 5, Border Collie); below 2 (Table 5, Fox Terrier); below 2 (Table 5, Grey hound); below 2 (Table 5, Kelpie Pointer); 2 (Table 5, Poodle Shitzu). Under “Table 5, Terrier Cross”, this sequence showed a Stimulatory index of 2.

In turn, “EQSNKAIEEIREATQET (canine distemper virus; synthetic peptide from canine distemper virus fusion protein (CDV-F) designated peptide P39)” showed a Stimulatory index under setting [5] of 2.9.

“FAGVVLAGVALGVATAA (canine distemper virus; synthetic peptide from canine distemper virus fusion protein (CDV-F) designated peptide P33)” displayed a Stimulatory index under setting [7] of 1.6; a Stimulatory index under setting [5] of 6; a Stimulatory index (Table 5, Border Collie) of 2; a Stimulatory index (Table 5, Fox Terrier) below 2; a Stimulatory index (Table 5, Grey hound) below 2; a Stimulatory index (Table 5, Kelpie Pointer) of 2. The sequence also returned a Stimulatory index (Table 5, Poodle Shitzu) below 2 and a Stimulatory index (Table 5, Terrier Cross) below 2.

For the sequence “GIALHQSNLNAQAIQSL (canine distemper virus; synthetic peptide from canine distemper virus fusion protein (CDV-F) designated peptide P36)”, the Stimulatory index is, setting by setting: under setting [1], 6.7; under setting [2], 3.7; under setting [3], 3.3; under setting [4], 16; under setting [5], 3.

Regarding GVALGVATAAQITAGIA [Peptide P34], the Stimulatory index under setting [5] is 2.1.

“IGTDNVHYKIMTRPSHQ (canine distemper virus; synthetic peptide from canine distemper virus fusion protein (CDV-F) designated peptide P22)” showed a Stimulatory index under setting [7] of 2.6.

On to “KLLNSVLEPINQALTLM (canine distemper virus; synthetic peptide from canine distemper virus fusion protein (CDV-F) designated peptide P28)”, for which the Stimulatory index under setting [6] was 2 and the Stimulatory index under setting [5] was 1.9.

On to “NLNAQAIQSLRTSLEQS (canine distemper virus; synthetic peptide from canine distemper virus fusion protein (CDV-F) designated peptide P37)”, for which the Stimulatory index is, setting by setting: under setting [1], 6.9; under setting [2], 10.9; under setting [3], 8.2; under setting [4], 26; under setting [7], 1.7; under setting [5], 2.5. Further, the Stimulatory index is reported as below 2 (Table 5, Border Collie); below 2 (Table 5, Fox Terrier); below 2 (Table 5, Grey hound); 2 (Table 5, Kelpie Pointer); below 2 (Table 5, Poodle Shitzu); 2 (Table 5, Terrier Cross).

“QPSTELEETRTSRARHS (canine distemper virus; synthetic peptide from canine distemper virus fusion protein (CDV-F) designated peptide P4)” displayed a Stimulatory index under setting [1] of 4.9; a Stimulatory index under setting [2] below 2; a Stimulatory index under setting [3] of 3.3; a Stimulatory index under setting [4] of 4.6; a Stimulatory index (Table 5, Border Collie) of 2; a Stimulatory index (Table 5, Fox Terrier) below 2. Further, the Stimulatory index reads like this: (Table 5, Grey hound) 2; (Table 5, Kelpie Pointer) 3.5; (Table 5, Poodle Shitzu) 44; (Table 5, Terrier Cross) 2.

On to “QSLRTSLEQSNKAIEEI (canine distemper virus; synthetic peptide from canine distemper virus fusion protein (CDV-F) designated peptide P38)”, for which the Stimulatory index under setting [1] is 2.8; the Stimulatory index under setting [2] is listed as 6.7; the Stimulatory index under setting [3] was 3.6; the Stimulatory index under setting [4] came to 4.2; the Stimulatory index under setting [5] was found to be 2.2.

With “RHSTTSAQRSTHYDPRT (canine distemper virus; synthetic peptide from canine distemper virus fusion protein (CDV-F) designated peptide P6)”, the Stimulatory index is reported as 2.5 under setting [1]; below 2 under setting [2]; 4 under setting [3]; 5.1 under setting [4]; 2 (Table 5, Border Collie); below 2 (Table 5, Fox Terrier). Moreover, the Stimulatory index is, setting by setting: (Table 5, Grey hound) below 2; (Table 5, Kelpie Pointer) below 2; (Table 5, Poodle Shitzu) 38; (Table 5, Terrier Cross) below 2.

Take “SGRRQRRFAGVVLAGVA (canine distemper virus; synthetic peptide from canine distemper virus fusion protein (CDV-F) designated peptide P32)”: the Stimulatory index reads like this: (Table 5, Border Collie) below 2; (Table 5, Fox Terrier) below 2; (Table 5, Grey hound) 2; (Table 5, Kelpie Pointer) below 2; (Table 5, Poodle Shitzu) below 2; (Table 5, Terrier Cross) below 2.
